{"source": "paper PMC10328330", "about": "(PLOS ONE, 2023)", "key": {"[1]": {"system": "T. gondii (ME49 strain)", "assay": "Efficacy in mice chronically infected with T. gondii (brain cysts, qPCR parasite burden)", "format": "in vivo, Toxoplasma gondii", "conditions": "C57BL/6 mice chronically infected with ME49", "procedure": "Chronic infection in Male C57/BL/6 mice (4 weeks-old) was obtained by intraperitoneal injection of brain tissue cysts (ME49 strain) as previously described. The cysts were obtained by directly macerating the brain tissue of previously chronically infected mice in 5 mL of saline solution. The resulting mixture was then subjected to a counting procedure using a Neubauer chamber under a microscope to determine the concentration of the cysts. To prepare the cysts for injection, they were further diluted in saline solution to achieve the desired concentration of 10 cysts per animal. Subsequently, the mice in the experiment were infected with these freshly obtained brain cysts via intraperitoneal injection. The animals were considered chronically infected 40 days post-infection, according to the protocol described by. […] Additionally, the presence of brain cysts, known to be responsible for the observed symptoms, further confirmed the chronic infection status.\nForty days after infection, chronically infected mice were randomly assigned into experimental groups (n = 4 per group). […] On day 51 post-infection, all animals were euthanized, and their brains were collected for analyses. The brains were used for microscopic counting of cysts, measurement of cysts area, RNA extraction, and quantification. For microscopic counting, 25 μL of macerated organ was utilized, while 200 μL was used for RNA extraction. Cysts area was measured using ImageJ software, available at https://imagej.nih.gov/ij/.\nWe performed a serial dilution of cultured tachyzoites of T. gondii (RH strain), ranging from 5×10^6 to 7.8×10^4 forms per mL. DNA samples were extracted from each point of the serial dilution (in duplicate samples), and real-time PCR was performed. The resulting data were used to plot the cycle threshold value (CT) against varying amounts of parasites, ultimately generating a standard curve. […]\nEach DNA and cDNA samples were analysed by quantitative real-time PCR using the set of primers Rep529, which amplified a T. gondii repetitive DNA fragment. […]"}, "[2]": {"system": "mice", "set-up": "method as in PMID 23791825", "conditions": "cited from earlier work"}}}
{"compound": "C=CCNc1nc(NCC=C)nc(N2CCN(C(c3ccc(F)cc3)c3ccc(F)cc3)CC2)n1", "note": "[almitrine bismesylate]", "values": [{"measurement": "parasite burden in the brains (real-time PCR)", "setting": "[1]; 25 mg/kg/day oral for 10 days, RNA of living parasites by qPCR, vs vehicle control group", "value": "statistically significant (p < 0.001) reduction"}, {"measurement": "cysts area", "setting": "[1]; 12.5 and 25 mg/kg/day oral for 10 days from day 40 post-infection, microscopy of brain macerates, ImageJ, vs vehicle", "value": "significant reduction (p < 0.05)"}, {"measurement": "number of brain cysts", "setting": "[1]; 12.5 and 25 mg/kg/day oral for 10 days from day 40 post-infection, microscopy of brain macerates, vs vehicle", "value": "significant reduction (p < 0.05)"}, {"measurement": "LD50", "setting": "[2]", "value": "> 200", "unit": "mg/kg"}]}
